Test results reported in publication PMC11374673, “Discovery of isoquinoline sulfonamides as allosteric gyrase inhibitors with activity against fluoroquinolone-resistant bacteria” (Nature Chemistry, 2024).
Values after ≈ are worked out from the molar mass of the structure shown. Values joined by “and” are separate entries in the source; they are usually repeats but may differ in a detail not shown here. Equal values may be shown once. Read-outs that look alike come from different tables or passages of the source. One block for each compound: values may come before it.

What was measured:
[1] = system: HEK293T; assay: Cytotoxicity assay (MTT); type: cell-based, human; conditions: for MTT data (raw readout): HEK293T; for IC50: 24 h, MTT
Method: (§1) HepG2 (ATCC HB-8065) and HEK293T (ATCC CRL-3216) cell lines were cultured at 37 °C and 7% CO2 in Dulbecco’s modified Eagle medium (Sigma-Aldrich, D6546) with GlutaMax, penicillin (100 µg ml^−1), streptomycin (100 µg ml^−1) and 10% fetal calf serum. Cells were passaged twice a week by first detaching using 0.05% trypsin in phosphate-buffered saline (PBS) and then diluting to appropriate confluence. Compound cytotoxicity was evaluated using the standard (3-(4,5-dimethylthiazol-2-yl)-2,5-diphenyltetrazolium bromide (MTT) assay protocol (MTT assay protocol for cell viability and proliferation, Merck) with slight changes. HepG2 and HEK293T cells were seeded at a density of 1.5 × 10^4 cells per well in a clear 96-well tissue culture treated plate in a final volume of 100 µl in Dulbecco’s modified Eagle medium, supplemented with fetal bovine serum (1%), GlutaMax and penicillin/streptomycin. Cells were incubated for 24 h at 37 °C, 7% CO2 to allow cells to attach to the plates. […] Incubation was done for 24 h at 37 °C, 7% CO2. After the incubation, MTT was added to each well at a final concentration of 0.40 mg ml^−1. The plates were then incubated for 2 h at 37 °C, 7% CO2. Medium was carefully removed via suction, and purple formazan crystals were resuspended in 100 µl DMSO. Absorbance was read at 570 nm using a Clariostar plate reader with MARS (V4.20). The data were then analysed with GraphPad Prism software. IC50 values were calculated using non-linear fitted curve with variable slope settings, with values adjusted for background (plotted absorbance (ABS)sample = (ABSsample – ABSbackground) / (ABSvehicle – ABSbackground)). Technical triplicates for each condition were used, along with biological duplicates.

[2] = system: HepG2; assay: Cytotoxicity assay (MTT); type: cell-based, human
Method: as §1

[3] = system: E. coli W3110; assay: MIC by broth microdilution; type: cell-based, Escherichia coli; conditions: for MIC: broth microdilution, read-out: MIC E. coli W3110; for antimicrobial activity: relative to parent compound
Method: (§2) MIC was determined by broth microdilution. Single-colony cultures were grown to exponential phase (OD600 of 0.5) aerobically at 37 °C. In case of strains from the Keio collection, 50 µg ml^−1 kanamycin was supplemented to the media to ascertain a homogeneous population. The bacterial suspensions were diluted 100-fold in CAMHB and 50 µl was added to a twofold serial dilution series of test compounds (50 µl per well) in polypropylene 96-well microtitre plates to reach a volume of 100 µl. The plates were sealed with breathable membranes and incubated overnight at 37 °C with constant shaking (600 r.p.m.).

[4] = system: K. pneumoniae ATCC 29665; assay: MIC by broth microdilution; type: cell-based, Klebsiella pneumoniae; conditions: read-out: MIC K. pneumoniae ATCC 29665
Method: as §2

[5] = Klebsiella pneumoniae, ATCC29665, broth microdilution

- MIC ([3]; Escherichia coli, W3110, WT): 6.25 µM (≈ 2.61 µg/mL)
- MIC [4, 5]: 12.5 µM (≈ 5.22 µg/mL)
SMILES: O=S(=O)(NCCNCc1ccc(-c2ccccc2)cc1)c1cccc2cnccc12 [Compound 56]
- MTT data (raw readout) ([1]; 0.023 uM, experiment n = 1, technical triplicates): 0.760 and 0.712 and 0.710
- MTT data (raw readout) ([1]; 0.023 uM, experiment n = 2, technical triplicates): 0.814 and 0.790 and 0.847
- MTT data (raw readout) ([1]; 0.068 uM, experiment n = 1, technical triplicates): 0.777 and 0.824 and 0.787
- MTT data (raw readout) ([1]; 0.068 uM, experiment n = 2, technical triplicates): 0.796 and 0.816 and 0.794
- MTT data (raw readout) ([1]; 0.21 uM, experiment n = 1, technical triplicates): 0.818 and 0.751 and 0.739
- MTT data (raw readout) ([1]; 0.21 uM, experiment n = 2, technical triplicates): 0.813 and 0.836 and 0.832
- MTT data (raw readout) ([1]; 0.62 uM, experiment n = 1, technical triplicates): 0.783 and 0.761 and 0.744
- MTT data (raw readout) ([1]; 0.62 uM, experiment n = 2, technical triplicates): 0.785 and 0.778 and 0.750
- MTT data (raw readout) ([1]; 1.85 uM, experiment n = 1, technical triplicates): 0.680 and 0.683 and 0.658
- MTT data (raw readout) ([1]; 1.85 uM, experiment n = 2, technical triplicates): 0.720 and 0.749 and 0.788
- MTT data (raw readout) ([1]; 5.6 uM, experiment n = 1, technical triplicates): 0.523 and 0.537 and 0.570
- MTT data (raw readout) ([1]; 5.6 uM, experiment n = 2, technical triplicates): 0.582 and 0.590 and 0.593
- MTT data (raw readout) ([1]; 16.7 uM, experiment n = 1, technical triplicates): 0.243 and 0.263 and 0.287
- MTT data (raw readout) ([1]; 16.7 uM, experiment n = 2, technical triplicates): 0.271 and 0.304 and 0.282
- MTT data (raw readout) ([1]; 50 uM, experiment n = 1, technical triplicates): 0.032 and 0.041 and 0.051
- MTT data (raw readout) ([1]; 50 uM, experiment n = 2, technical triplicates): 0.036 and 0.023 and 0.035
- IC50 ([1]; Homo sapiens, HEK-293T): 10 µM
- IC50 [1]: 10.4 µM
- MTT data (raw readout) ([2]; HepG2, 0.023 uM, experiment n = 1, technical triplicates): 0.559 and 0.503 and 0.453
- MTT data (raw readout) ([2]; HepG2, 0.023 uM, experiment n = 2, technical triplicates): 0.586 and 0.547 and 0.578
- MTT data (raw readout) ([2]; HepG2, 0.068 uM, experiment n = 1, technical triplicates): 0.490 and 0.488 and 0.494
- MTT data (raw readout) ([2]; HepG2, 0.068 uM, experiment n = 2, technical triplicates): 0.579 and 0.616 and 0.615
- MTT data (raw readout) ([2]; HepG2, 0.21 uM, experiment n = 1, technical triplicates): 0.573 and 0.504 and 0.507
- MTT data (raw readout) ([2]; HepG2, 0.21 uM, experiment n = 2, technical triplicates): 0.577 and 0.574 and 0.618
- MTT data (raw readout) ([2]; HepG2, 0.62 uM, experiment n = 1, technical triplicates): 0.495 and 0.510 and 0.493
- MTT data (raw readout) ([2]; HepG2, 0.62 uM, experiment n = 2, technical triplicates): 0.602 and 0.579 and 0.597
- MTT data (raw readout) ([2]; HepG2, 1.85 uM, experiment n = 1, technical triplicates): 0.533 and 0.518 and 0.529
- MTT data (raw readout) ([2]; HepG2, 1.85 uM, experiment n = 2, technical triplicates): 0.634 and 0.597 and 0.638
- MTT data (raw readout) ([2]; HepG2, 5.6 uM, experiment n = 1, technical triplicates): 0.550 and 0.534 and 0.503
- MTT data (raw readout) ([2]; HepG2, 5.6 uM, experiment n = 2, technical triplicates): 0.619 and 0.618 and 0.638
- MTT data (raw readout) ([2]; HepG2, 16.7 uM, experiment n = 1, technical triplicates): 0.186 and 0.116 and 0.134
- MTT data (raw readout) ([2]; HepG2, 50 uM, experiment n = 1, technical triplicates): 0.0047 and 0.0027
- IC50 ([2]; Homo sapiens, HepG2, 24 h, MTT, 24 h): 16.7 µM
- antimicrobial activity [3]: equally potent

- MIC ([3]; Escherichia coli, W3110, WT): > 50 µM
- MIC ([3]; WT): >50 µM
- MIC [4, 5]: > 50 µM
- MIC ([4]; broth microdilution): >50 µM
SMILES: O=S(=O)(NCCNCc1ccc(-c2cccnc2)nc1)c1cccc2cnccc12 [Compound 79]

- MIC ([3]; Escherichia coli, W3110, WT): > 50 µM
- MIC ([3]; WT): >50 µM
- MIC [4, 5]: > 50 µM
- MIC ([4]; broth microdilution): >50 µM
SMILES: O=S(=O)(NCCNCc1ccc(-c2ccccc2)nc1)c1cccc2cnccc12 [Compound 80]

- MIC ([3]; Escherichia coli, W3110, WT): > 50 µM
- MIC ([3]; WT): >50 µM
- MIC [4, 5]: > 50 µM
- MIC ([4]; broth microdilution): >50 µM
SMILES: O=S(=O)(NCCNCc1ccc(-c2ccc(F)nc2)nc1)c1cccc2cnccc12 [Compound 81]

- MIC ([3]; Escherichia coli, W3110, WT): > 50 µM
- MIC ([3]; WT): >50 µM
- MIC [4, 5]: > 50 µM
- MIC ([4]; broth microdilution): >50 µM
SMILES: O=S(=O)(NCCNCc1ccc(-c2ccc(F)cc2)nc1)c1cccc2cnccc12 [Compound 82]

- MIC ([3]; Escherichia coli, W3110, WT): > 50 µM
- MIC ([3]; WT): >50 µM
- MIC [4, 5]: > 50 µM
- MIC ([4]; broth microdilution): >50 µM
SMILES: O=S(=O)(NCCNCc1ccc(-c2cccnc2)c(Cl)c1)c1cccc2cnccc12 [Compound 83]

- MIC ([3]; Escherichia coli, W3110, WT): > 50 µM
- MIC ([3]; WT): >50 µM
- MIC [4, 5]: > 50 µM
- MIC ([4]; broth microdilution): >50 µM
SMILES: O=S(=O)(NCCNCc1ccc(-c2ccccc2)c(Cl)c1)c1cccc2cnccc12 [Compound 84]

- MIC ([3]; Escherichia coli, W3110, WT): > 50 µM
- MIC ([3]; WT): >50 µM
- MIC [4, 5]: > 50 µM
- MIC ([4]; broth microdilution): >50 µM
SMILES: O=S(=O)(NCCNCc1ccc(-c2ccc(F)nc2)c(Cl)c1)c1cccc2cnccc12 [Compound 85]

- MIC ([3]; Escherichia coli, W3110, WT): 50 µM (≈ 23.5 µg/mL)
- MIC [4, 5]: > 50 µM
- MIC ([4]; broth microdilution): >50 µM
SMILES: O=S(=O)(NCCNCc1ccc(-c2ccc(F)cc2)c(Cl)c1)c1cccc2cnccc12 [Compound 86]

- MIC ([3]; Escherichia coli, W3110, WT): 25 µM (≈ 10.9 µg/mL)
- MIC [4, 5]: 50 µM (≈ 21.8 µg/mL)
SMILES: O=S(=O)(NCCNCc1ccc(-c2cccnc2)c(F)c1)c1cccc2cnccc12 [Compound 87]

- MIC ([3]; Escherichia coli, W3110, WT): 12.5 µM (≈ 5.44 µg/mL)
- MIC [4, 5]: 25 µM (≈ 10.9 µg/mL)
SMILES: O=S(=O)(NCCNCc1ccc(-c2ccccc2)c(F)c1)c1cccc2cnccc12 [Compound 88]

- MIC ([3]; Escherichia coli, W3110, WT): 12.5 µM (≈ 5.67 µg/mL)
- MIC [4, 5]: 12.5 µM (≈ 5.67 µg/mL)
SMILES: O=S(=O)(NCCNCc1ccc(-c2ccc(F)cc2)c(F)c1)c1cccc2cnccc12 [Compound 90]

- MIC ([3]; Escherichia coli, W3110, WT): > 50 µM
- MIC ([3]; WT): >50 µM
- MIC [4, 5]: > 50 µM
- MIC ([4]; broth microdilution): >50 µM
SMILES: O=C(NCCNCc1ccc(-c2cccnc2)cc1)c1cccc2cnccc12 [Compound 91]
- antimicrobial activity [3]: loss of activity

- MIC ([3]; Escherichia coli, W3110, WT): > 50 µM
- MIC ([3]; WT): >50 µM
- MIC [4, 5]: > 50 µM
- MIC ([4]; broth microdilution): >50 µM
SMILES: O=C(NCCNS(=O)(=O)c1cccc2cnccc12)c1ccc(-c2cccnc2)cc1 [Compound 93]
- antimicrobial activity [3]: abolished all activity

- MIC ([3]; Escherichia coli, W3110, WT): > 50 µM
- MIC ([3]; WT): >50 µM
- MIC [4, 5]: > 50 µM
- MIC ([4]; broth microdilution): >50 µM
SMILES: O=S(=O)(NCCOCc1ccc(-c2cccnc2)cc1)c1cccc2cnccc12 [Compound 94]
- antimicrobial activity [3]: abolished all activity

- MIC ([3]; Escherichia coli, W3110, WT): > 50 µM
- MIC ([3]; WT): >50 µM
- MIC [4, 5]: 50 µM (≈ 21.6 µg/mL)
SMILES: CN(CCNS(=O)(=O)c1cccc2cnccc12)Cc1ccc(-c2cccnc2)cc1 [Compound 95]
- antimicrobial activity [3]: abolished all activity
